# According to patent US20220081412A1, “QUINOLINYL-PYRAZINE-CARBOXAMIDE COMPOUNDS AND USES THEREOF” (The Regents of the University of Michigan, priority 2018, published 2022):
# Where two headings read alike, the source gives them in different places.
# Test system: MIA PaCa-2 cells
# Assay: Bru-seq analysis for nascent RNA synthesis (log2FC of genes, GSEA gene sets)
# Format: cell-based, human
# [1] = ACEVEDO_LIVER_CANCER_WITH_H3K27ME3_UP, C2, downregulated, 4 h
# [2] = ACTWSNACTNY_UNKNOWN, TFBT, upregulated, 4 h
# [3] = AP1_Q4_01, TFBT, upregulated, 4 h
# [4] = BACH1_01, TFBT, upregulated, 4 h
# [5] = BACH2_01, TFBT, upregulated, 4 h
# [6] = BEGUM_TARGETS_OF_PAX3_FOXO1_FUSION_UP, C2, downregulated, 4 h
# [7] = CCCNNNNNNAAGWT_UNKNOWN, TFBT, upregulated, 4 h
# [8] = DACOSTA_UV_RESPONSE_VIA_ERCC3_COMMON_DN, C2, downregulated, 4 h
# [9] = DACOSTA_UV_RESPONSE_VIA_ERCC3_XPCS_DN, C2, downregulated, 4 h
# [10] = DAZARD_UV_RESPONSE_CLUSTER_G6, C2, downregulated, 4 h
# [11] = DE_YY1_TARGETS_DN, C2, downregulated, 4 h
# [12] = DOANE_BREAST_CANCER_CLASSES_DN, C2, downregulated, 4 h
# [13] = EVI1_05, TFBT, upregulated, 4 h
# [14] = GABRIELY_MIR21_TARGETS, C2, downregulated, 4 h
# [15] = GATGKMRGCG_UNKNOWN, TFBT, upregulated, 4 h
# [16] = GCCNNNWTAAR_UNKNOWN, TFBT, upregulated, 4 h
# [17] = GGAANCGGAANY_UNKNOWN, TFBT, upregulated, 4 h
# [18] = GGCNRNWCTTYS_UNKNOWN, TFBT, upregulated, 4 h
# [19] = GGGYGTGNY_UNKNOWN, TFBT, upregulated, 4 h
# [20] = GO_ALCOHOL_BIOSYNTHETIC_PROCESS, upregulated, 4 h
# [21] = GO_ALCOHOL_METABOLIC_PROCESS, upregulated, 4 h
# [22] = GO_CELLULAR_RESPONSE_TO_TOPOLOGICALLY_INCORRECT_PROTEIN, upregulated, 4 h
# [23] = GO_CHROMATIN_ASSEMBLY_OR_DISASSEMBLY, upregulated, 4 h
# [24] = GO_CHROMATIN_SILENCING_AT_RDNA, upregulated, 4 h
# [25] = GO_CYTOSOLIC_LARGE_RIBOSOMAL_SUBUNIT, upregulated, 4 h
# [26] = GO_CYTOSOLIC_RIBOSOME, upregulated, 4 h
# [27] = GO_DNA_PACKAGING, upregulated, 4 h
# [28] = GO_DNA_PACKAGING_COMPLEX, upregulated, 4 h
# [29] = GO_HEXOSE_METABOLIC_PROCESS, upregulated, 4 h
# [30] = GO_INTRINSIC_COMPONENT_OF_ENDOPLASMIC_RETICULUM_MEMBRANE, upregulated, 4 h
# [31] = GO_IRE1_MEDIATED_UNFOLDED_PROTEIN_RESPONSE, upregulated, 4 h
# [32] = GO_NEGATIVE_REGULATION_OF_RESPONSE_TO_OXIDATIVE_STRESS, upregulated, 4 h
structure (smiles),measurement,setting,value
"Cc1cc(NC(=O)c2cnc(N3CCNCC3)cn2)c2ncccc2c1 [J28, N-(6-methylquinolin-8-yl)-5-(piperazin-1-yl)pyrazine-2-carboxamide]",ES,,0.474
same,KEGG gene sets SYSTEMIC_LUPUS_ERYTHEMATOSUS and LYSOSOME,,upregulation
same,NES,,1.626
same,cholesterol biosynthesis pathway (curated gene sets),,enrichment
same,"expression of genes like INSIG1, DHCR7, MVK and FASN",,Overexpression
same,"synthesis of PCYT2, DOLK and HIST1H3B RNAs",,upregulated in a dose-dependent manner
same,"expression of ZNF816, IFT80, CACNG8 and GPR135",4 h,significant decrease
same,"Cell Cycle, Mitotic pathway",4 h of treatment,upregulated
same,log2FC,"AC005614.2, downregulated noncoding gene, 4 h",−1.01
same,log2FC,"AC005726.2, downregulated protein-coding gene, 4 h",−0.99
same,log2FC,"AC006141.1, downregulated noncoding gene, 4 h",−1.18
same,log2FC,"AC007038.2, downregulated noncoding gene, 4 h",−1.08
same,log2FC,"AC007099.1, downregulated noncoding gene, 4 h",−1.04
same,log2FC,"AC007390.2, downregulated noncoding gene, 4 h",−1.54
same,log2FC,"AC007619.1, downregulated noncoding gene, 4 h",−1.30
same,log2FC,"AC009690.1, downregulated protein-coding gene, 4 h",−0.83
same,log2FC,"AC016949.1, downregulated noncoding gene, 4 h",−1.18
same,log2FC,"AC022335.1, downregulated protein-coding gene, 4 h",−0.86
same,log2FC,"AC022415.1, downregulated noncoding gene, 4 h",−1.20
same,log2FC,"AC040934.1, downregulated noncoding gene, 4 h",−0.97
same,log2FC,"AC046130.2, downregulated noncoding gene, 4 h",−1.16
same,log2FC,"AC091152.2, downregulated noncoding gene, 4 h",−1.18
same,log2FC,"AC135983.2, downregulated noncoding gene, 4 h",−1.16
same,log2FC,"AC244131.2, downregulated noncoding gene, 4 h",−1.22
same,ES,[1],−0.444
same,NES,[1],−1.897
same,ES,[2],0.432
same,NES,[2],1.640
same,log2FC,"ADNP-AS1, downregulated noncoding gene, 4 h",−1.07
same,log2FC,"AKAP5, downregulated protein-coding gene, 4 h",−0.90
same,log2FC,"AL596247.1, downregulated noncoding gene, 4 h",−2.37
same,ES,[3],0.371
same,NES,[3],1.550
same,log2FC,"AP001992.1, downregulated noncoding gene, 4 h",−1.36
same,ES,[4],0.419
same,NES,[4],1.762
same,ES,[5],0.390
same,NES,[5],1.654
same,ES,[6],−0.621
same,NES,[6],−2.034
same,log2FC,"CACNG8, downregulated protein-coding gene, 4 h",−1.10
same,ES,[7],0.409
same,NES,[7],1.550
same,log2FC,"CCDC190, downregulated protein-coding gene, 4 h",−0.91
same,log2FC,"CD274, downregulated protein-coding gene, 4 h",−0.90
same,log2FC,"CHML, downregulated protein-coding gene, 4 h",−0.94
same,log2FC,"CLEC2D, downregulated protein-coding gene, 4 h",−0.84
same,ES,[8],−0.448
same,NES,[8],−2.492
same,ES,[9],−0.520
same,NES,[9],−2.258
same,ES,[10],−0.434
same,NES,[10],−2.065
same,ES,[11],−0.471
same,NES,[11],−2.072
same,ES,[12],−0.562
same,NES,[12],−1.907
same,ES,[13],0.421
same,NES,[13],1.596
same,log2FC,"FERMT1, downregulated protein-coding gene, 4 h",−0.88
same,log2FC,"FP671120.1, downregulated noncoding gene, 4 h",−2.35
same,ES,[14],−0.470
same,NES,[14],−2.457
same,ES,[15],0.462
same,NES,[15],1.697
same,ES,[16],0.442
same,NES,[16],1.702
same,log2FC,"GCLM, downregulated protein-coding gene, 4 h",−0.85
same,log2FC,"GCNA, downregulated protein-coding gene, 4 h",−0.89
same,ES,[17],0.421
same,NES,[17],1.695
same,ES,[18],0.424
same,NES,[18],1.583
same,ES,[19],0.361
same,NES,[19],1.708
same,ES,[20],0.573
same,NES,[20],2.162
same,ES,[21],0.457
same,NES,[21],2.022
same,ES,[22],0.504
same,NES,[22],2.013
same,ES,[23],0.470
same,NES,[23],1.952
same,ES,[24],0.713
same,NES,[24],2.078
same,ES,[25],0.536
same,NES,[25],1.982
same,ES,[26],0.516
same,NES,[26],2.082
same,ES,[27],0.468
same,NES,[27],1.976
same,ES,[28],0.727
same,NES,[28],2.600
same,ES,[29],0.500
same,NES,[29],1.992
same,ES,[30],0.508
same,NES,[30],2.000
same,ES,[31],0.556
same,NES,[31],2.001
same,ES,[32],0.743
same,NES,[32],2.162
